From ChEMBL document CHEMBL1201862, “PubChem BioAssay data set” (2004)
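Growth conditions: 96-well plates. Treatment: test compound, 48 hours, 5 concentrations. Analysis: linear interpolation between bracketing concentrations; unreached endpoints set to highest concentration. The concentration for 50% growth inhibition is given as GI50.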 The source made the active and inactive calls. Rule as the data show it: active = GI50 up to about 1.1 µM and inactive = higher.

Experiments:
Assay in all cases: NCI anticancer screen, dose series, 48 h
[1] = system: SK-MEL-28
[2] = system: OVCAR-4
[3] = system: SN12C
[4] = system: NCI/ADR-RES
[5] = system: SK-MEL-5
[6] = system: KM12
[7] = system: 786-0
[8] = system: SF-295
[9] = system: UACC-62
[10] = system: MCF7
[11] = system: SR
[12] = system: A549
[13] = system: M14
[14] = system: IGROV-1
[15] = system: CAKI-1
[16] = system: DU-145
[17] = system: SK-OV-3
[18] = system: MDA-N
[19] = system: SF-539

Measured: GI50

CN(C)Cc1cc(/N=N/c2cccc(Cl)c2)ccc1O
inactive: [1] 13.6 µM | [2] 9.86 µM | [3] 28.6 µM | [4] 5.05 µM | [5] 3.4 µM | [6] 7.08 µM | [7] 13.8 µM | [8] 14.7 µM | [9] 3.61 µM | [10] 14.8 µM | [11] 20.1 µM | [12] 15.5 µM | [13] 9.66 µM | [14] 10.9 µM | [15] 21.2 µM | [16] 6.9 µM | [17] 19.9 µM | [18] 10.2 µM | [19] 16 µM

O=C(O)C1CCCCC1C(=O)Nc1nc2ccccc2[nH]1 (stereo not given)
inactive: [1] > 100 µM | [2] > 100 µM | [3] > 100 µM | [4] > 100 µM | [5] > 100 µM | [6] > 100 µM | [7] > 100 µM | [8] > 100 µM | [9] > 100 µM | [10] > 100 µM | [11] > 100 µM | [12] > 100 µM | [13] > 100 µM | [14] > 100 µM | [15] > 100 µM | [16] > 100 µM | [17] > 100 µM | [18] > 100 µM | [19] > 100 µM

O=C(Nc1cccc(NC(=O)C(=O)C2CCC3=C(Sc4ccccc4N3)C2=O)n1)C(=O)C1CCC2=C(Sc3ccccc3N2)C1=O (stereo not given)
inactive: [1] > 100 µM | [2] 18.9 µM | [3] 74.3 µM | [4] 40.8 µM | [5] 41.2 µM | [6] 29.2 µM | [7] 91.8 µM | [8] 42.6 µM | [9] 96.4 µM | [10] 75.7 µM | [11] 71.4 µM | [12] > 100 µM | [13] 86.3 µM | [14] 32.9 µM | [15] 38.3 µM | [16] > 100 µM | [17] > 100 µM | [18] 40.2 µM | [19] 13.1 µM

Cc1ccc(/N=N/C(=N\c2ccc(F)cc2)c2ccc(N(CCC#N)CCC#N)cc2)cc1
inactive: [1] > 100 µM | [2] 60.3 µM | [3] > 100 µM | [4] > 100 µM | [5] 44.1 µM | [6] 33.3 µM | [7] > 100 µM | [8] > 100 µM | [9] > 100 µM | [10] 42.5 µM | [11] 74.3 µM | [12] 45.9 µM | [13] > 100 µM | [14] 70.1 µM | [15] > 100 µM | [16] > 100 µM | [17] > 100 µM | [18] > 100 µM | [19] > 100 µM

O=C1/C(=C\c2cccc(Oc3ccccc3)c2)S(=O)(=O)C(c2ccccc2)N1c1ccccc1Cl (stereo not given)
inactive: [1] 38.9 µM | [2] 15.4 µM | [3] 23 µM | [4] 29.4 µM | [5] 17.4 µM | [6] 27 µM | [7] 29.3 µM | [8] 30.8 µM | [9] 25.2 µM | [10] 21.9 µM | [11] 17.9 µM | [12] 31.6 µM | [13] 28.6 µM | [14] 17.1 µM | [15] 32.6 µM | [16] 36.1 µM | [17] 34.2 µM | [18] 21.2 µM | [19] 5.83 µM

Cn1cnc2c(NCc3ccccc3)nc(NCCO)nc21 [OLOMOUCINE]
inactive: [1] 52.8 µM | [2] 94.2 µM | [3] 90.2 µM | [4] > 93.8 µM | [5] 40.6 µM | [6] 35 µM | [7] 60.7 µM | [8] 41.1 µM | [9] 32.6 µM | [10] 39.7 µM | [11] 29.7 µM | [12] 43.9 µM | [13] 78.9 µM | [14] 42.3 µM | [15] 33.7 µM | [16] 34.1 µM | [17] > 95.5 µM | [18] 79.4 µM | [19] 42.2 µM

C/C(=C/CC[C@](C)(OC1OC(CO)C(O)C(O)C1O)[C@H]1CC[C@]2(C)[C@@H]1CC[C@@H]1[C@@]3(C)CC[C@H](O)C(C)(C)[C@@H]3C[C@H](O)[C@]12CO)CO (stereo not given in full)
inactive: [1] > 100 µM | [2] > 100 µM | [3] > 100 µM | [4] > 100 µM | [5] > 100 µM | [6] > 100 µM | [7] > 100 µM | [8] > 100 µM | [9] > 100 µM | [10] > 100 µM | [11] > 100 µM | [12] > 100 µM | [13] > 100 µM | [14] > 100 µM | [15] > 100 µM | [16] > 100 µM | [17] > 100 µM | [18] > 100 µM | [19] > 100 µM

O=C1O/C(=C\c2ccc(O)c(Br)c2)C(c2ccc(O)c(Cl)c2)=C1Br
inactive: [1] 16.3 µM | [2] 11.5 µM | [3] 25.8 µM | [4] 19.9 µM | [5] 14.8 µM | [6] 15 µM | [7] 16.3 µM | [8] 16.1 µM | [9] 13.9 µM | [10] 16.7 µM | [11] 5.86 µM | [12] 18.4 µM | [13] 17.8 µM | [14] 21.9 µM | [15] 27 µM | [16] 18.8 µM | [17] 18 µM | [18] 16.8 µM | [19] 18.6 µM

C/C(Nc1ccc(Cl)cc1)=C1/CCOC1=O
inactive: [1] > 100 µM | [2] > 100 µM | [3] > 100 µM | [4] > 75.9 µM | [5] 1.13 µM | [7] > 100 µM | [8] 6.7 µM | [10] 13.2 µM | [11] 21.5 µM | [12] 4.89 µM | [13] 2.62 µM | [14] > 23 µM | [15] > 66.1 µM | [16] 6.31 µM | [17] 59.2 µM | [18] 92.5 µM | [19] > 25.4 µM
active: [6] 0.618 µM | [9] 0.168 µM

O=[N+]([O-])/C(C(Cl)=C(Cl)Cl)=C(/Br)SCc1ccccc1
inactive: [1] 1.89 µM | [2] 3.3 µM | [3] 2.27 µM | [4] 3.29 µM | [5] 2.96 µM | [6] 13.4 µM | [7] 2.1 µM | [8] 15.9 µM | [9] 3.42 µM | [10] 2.84 µM | [12] 5.85 µM | [13] 2.4 µM | [14] 3.71 µM | [15] 2 µM | [16] 12.9 µM | [17] 22 µM | [18] 1.87 µM | [19] 7.4 µM
active: [11] 0.375 µM
